Experimental data taken from patent publication US11884671B2, “Purinone compounds and their use in treating cancer” (ASTRAZENECA AB, priority 2018, dated 2024).

Key:
DNAPK = DNAPK (Homo sapiens (Human), UniProt P78527); assay: DNAPK cellular potency assay (DNA-PK cell), pS2056-DNAPK ELISA in irradiated A549 cells; format: cell-based; settings: 8 Gy radiation, arithmetic mean of two or more experiments, read-out: DNA-PK cell pIC50 (converted)
Experimental: The DNAPK cell ELISA assay was performed in the A549 cell line. A549 cells were cultured in cell media composed of MEM-F12 (Minimum Essential Medium F12 Sigma #D6421), 10% (v/v) Foetal Calf Serum and 1% (v/v) 200 mM L-Glutamine. […] The following day the Greiner ELISA plates were washed 3× with PBS-T and blocked with 3% BSA/PBS for 2 h, before a further 3× wash with PBS-T.
The cell plates were then incubated for 1 h at 37° C. before receiving a radiation dose of 8 Gy (XRAD 320, table height 65). The cells were incubated for a further 1 h before removal of cell media. […] Cell lysates ([…]) were transferred to the DNAPK antibody-coated ELISA plates using a CyBio Felix liquid handling platform, and ELISA plates were incubated at 4° C. overnight.
The following day, ELISA plates were washed 3× with PBS-T and dispensed with in-house pS2056-DNAPK antibody (0.5 μg/mL in 3% BSA/PBS) at 20 ul/well.
The fluorescence intensity of individual wells was determined using a PerkinElmer EnVision plate reader.
Data was analysed and IC50 values were calculated using Genedata Screener® software (Genedata, Inc., Basel, Switzerland).

JAK2 = JAK2 (Homo sapiens (Human), UniProt O60674); assay: JAK2 enzyme assay (Z'-LYTE); format: biochemical; settings: 25 μM ATP, arithmetic mean of two or more experiments; for IC50: read-out: JAK2 enz pIC50 (converted)
Experimental: (§1) The inhibitory activity of compounds against AURKA, AURKB, JAK1, JAK2 and JAK3 was determined in Z′-LYTE® assays run by ThermoFisher Scientific as part of their SelectScreen® Biochemical Kinase Profiling Service. The Z′-LYTE® biochemical assay format employs a fluorescence-based, coupled-enzyme format and is based on the differential sensitivity of phosphorylated and non-phosphorylated peptides to proteolytic cleavage. The peptide substrate is labeled with two fluorophores—one at each end—that make up a FRET pair. In the primary reaction, the kinase transfers the gamma-phosphate of ATP to a single tyrosine, serine or threonine residue in a synthetic FRET-peptide. In the secondary reaction, a site-specific protease recognises and cleaves non-phosphorylated FRET-peptides. Phosphorylation of FRET-peptides suppresses cleavage by the Development Reagent. Cleavage disrupts FRET between the donor (i.e., coumarin) and acceptor (i.e., fluorescein) fluorophores on the FRET-peptide, whereas uncleaved, phosphorylated FRET-peptides maintain FRET. A ratiometric method, which calculates the ratio (the Emission Ratio) of donor emission to acceptor emission after excitation of the donor fluorophore at 400 nm, is used to quantitate reaction progress. Both cleaved and uncleaved FRET-peptides contribute to the fluorescence signals and therefore to the Emission Ratio. The extent of phosphorylation of the FRET-peptide can be calculated from the Emission Ratio.
(§2) 10 point three-fold dilution compound concentration-response curves, with a top concentration of 10 μM were generated from 10 mM stocks of compound solubilised in DMSO. All assays were performed in black, non-binding, low volume Corning 384-well plates (cat. #4514, Corning), in a total reaction volume of 10 μL and 1% (v/v) final DMSO concentration. […] The kinase reaction was then quenched by the addition of 5 μL of Development Reagent (ThermoFisher Scientific proprietary). […] IC50 values were calculated using XLfit software (IDBS Ltd, Surrey, UK), with the curve fit to model number 205 (sigmoidal dose-response model).
JAK2: The 2×JAK2/Tyr 06 (ThermoFisher Scientific proprietary) mixture was prepared in 50 mM HEPES pH 7.5, 0.01% BRIJ-35, 10 mM MgCl2, 1 mM EGTA. […] After the 1 hour Kinase Reaction incubation, 5 μL of a 1:128 dilution of Development Reagent was added.

JAK3 = JAK3 (Homo sapiens (Human), UniProt P52333); assay: JAK3 enzyme assay (Z'-LYTE); format: biochemical; settings: 10 μM ATP, arithmetic mean of two or more experiments; for IC50: read-out: JAK3 enz pIC50 (converted)
Experimental: as §1, §2
JAK3: The 2×JAK3/Tyr 06 (ThermoFisher Scientific proprietary) mixture was prepared in 50 mM HEPES pH 7.5. 0.01% BRIJ-35, 10 mM MgCl2, 1 mM EGTA. […] After the 1 hour Kinase Reaction incubation, 5 μL of a 1:128 dilution of Development Reagent was added.

AURKA (Aurora A) = AURKA (Aurora A) (Homo sapiens (Human), UniProt O14965); assay: Aurora-A enzyme assay (Z'-LYTE); format: biochemical; settings: 10 μM ATP, arithmetic mean of two or more experiments; for IC50: read-out: AurA enz pIC50 (converted)
Experimental: as §1, §2
Aurora A (AurA): The 2×AURKA (Aurora A)/Ser/Thr 01 (ThermoFisher Scientific proprietary) mixture was prepared in 50 mM HEPES pH 7.5, 0.01% BRIJ-35, 10 mM MgCl2, 1 mM EGTA. […] After the 1 hour Kinase Reaction incubation, 5 μL of a 1:4096 dilution of Development Reagent was added.

AURKB (Aurora B) = AURKB (Aurora B) (Homo sapiens (Human), UniProt Q96GD4); assay: Aurora-B enzyme assay (Z'-LYTE); format: biochemical; settings: 75 μM ATP, arithmetic mean of two or more experiments; for IC50: read-out: AurB enz pIC50 (converted)
Experimental: as §1, §2
Aurora B (AurB): The 2×AURKB (Aurora B)/Ser/Thr 01 (ThermoFisher Scientific proprietary) mixture was prepared in 50 mM HEPES pH 7.5, 0.01% BRIJ-35, 10 mM MgCl2, 1 mM EGTA. […] After the 1 hour Kinase Reaction incubation, 5 μL of a 1:4096 dilution of Development Reagent was added.

Sequence of JAK3 (P52333 whole entry): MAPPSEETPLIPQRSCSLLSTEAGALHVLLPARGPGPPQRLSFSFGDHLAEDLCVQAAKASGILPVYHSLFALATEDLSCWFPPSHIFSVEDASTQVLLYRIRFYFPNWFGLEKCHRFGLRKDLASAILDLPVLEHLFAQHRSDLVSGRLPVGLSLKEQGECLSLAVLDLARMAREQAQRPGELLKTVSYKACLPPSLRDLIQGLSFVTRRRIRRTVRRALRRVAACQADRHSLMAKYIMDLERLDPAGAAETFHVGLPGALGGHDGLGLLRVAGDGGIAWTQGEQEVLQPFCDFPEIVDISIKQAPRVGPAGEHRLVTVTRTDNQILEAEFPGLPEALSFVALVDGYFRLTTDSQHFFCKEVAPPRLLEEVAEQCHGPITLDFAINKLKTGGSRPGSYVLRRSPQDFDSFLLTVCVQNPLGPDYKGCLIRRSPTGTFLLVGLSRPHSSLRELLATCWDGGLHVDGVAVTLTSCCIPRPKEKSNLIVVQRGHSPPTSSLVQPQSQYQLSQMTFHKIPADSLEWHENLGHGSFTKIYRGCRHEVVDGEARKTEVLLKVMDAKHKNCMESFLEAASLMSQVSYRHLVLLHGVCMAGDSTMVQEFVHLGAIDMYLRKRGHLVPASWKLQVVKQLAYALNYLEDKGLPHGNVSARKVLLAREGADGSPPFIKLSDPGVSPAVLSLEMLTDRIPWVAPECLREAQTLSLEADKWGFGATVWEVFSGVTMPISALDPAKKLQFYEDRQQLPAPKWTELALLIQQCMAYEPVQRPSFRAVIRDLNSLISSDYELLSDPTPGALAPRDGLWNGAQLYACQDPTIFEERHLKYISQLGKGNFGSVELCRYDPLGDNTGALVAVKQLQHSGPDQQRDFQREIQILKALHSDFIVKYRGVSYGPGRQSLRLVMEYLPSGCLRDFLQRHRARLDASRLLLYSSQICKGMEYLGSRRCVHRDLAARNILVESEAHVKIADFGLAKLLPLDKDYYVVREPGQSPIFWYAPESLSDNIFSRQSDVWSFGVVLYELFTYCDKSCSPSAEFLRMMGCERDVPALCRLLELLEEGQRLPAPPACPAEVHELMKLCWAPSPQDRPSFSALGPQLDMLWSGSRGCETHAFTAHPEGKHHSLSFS
Sequence of AURKA (Aurora A) (O14965 whole entry): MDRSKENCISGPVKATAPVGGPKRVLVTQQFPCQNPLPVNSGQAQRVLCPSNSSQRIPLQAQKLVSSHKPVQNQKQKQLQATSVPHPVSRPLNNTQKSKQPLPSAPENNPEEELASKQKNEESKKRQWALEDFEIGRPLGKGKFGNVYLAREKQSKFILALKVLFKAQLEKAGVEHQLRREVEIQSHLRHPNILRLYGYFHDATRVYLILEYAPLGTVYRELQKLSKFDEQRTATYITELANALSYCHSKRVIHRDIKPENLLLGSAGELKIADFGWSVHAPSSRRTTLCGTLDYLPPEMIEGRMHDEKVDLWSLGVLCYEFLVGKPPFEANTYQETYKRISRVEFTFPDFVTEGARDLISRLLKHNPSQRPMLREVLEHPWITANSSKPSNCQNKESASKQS
Sequence of JAK2 (O60674 whole entry): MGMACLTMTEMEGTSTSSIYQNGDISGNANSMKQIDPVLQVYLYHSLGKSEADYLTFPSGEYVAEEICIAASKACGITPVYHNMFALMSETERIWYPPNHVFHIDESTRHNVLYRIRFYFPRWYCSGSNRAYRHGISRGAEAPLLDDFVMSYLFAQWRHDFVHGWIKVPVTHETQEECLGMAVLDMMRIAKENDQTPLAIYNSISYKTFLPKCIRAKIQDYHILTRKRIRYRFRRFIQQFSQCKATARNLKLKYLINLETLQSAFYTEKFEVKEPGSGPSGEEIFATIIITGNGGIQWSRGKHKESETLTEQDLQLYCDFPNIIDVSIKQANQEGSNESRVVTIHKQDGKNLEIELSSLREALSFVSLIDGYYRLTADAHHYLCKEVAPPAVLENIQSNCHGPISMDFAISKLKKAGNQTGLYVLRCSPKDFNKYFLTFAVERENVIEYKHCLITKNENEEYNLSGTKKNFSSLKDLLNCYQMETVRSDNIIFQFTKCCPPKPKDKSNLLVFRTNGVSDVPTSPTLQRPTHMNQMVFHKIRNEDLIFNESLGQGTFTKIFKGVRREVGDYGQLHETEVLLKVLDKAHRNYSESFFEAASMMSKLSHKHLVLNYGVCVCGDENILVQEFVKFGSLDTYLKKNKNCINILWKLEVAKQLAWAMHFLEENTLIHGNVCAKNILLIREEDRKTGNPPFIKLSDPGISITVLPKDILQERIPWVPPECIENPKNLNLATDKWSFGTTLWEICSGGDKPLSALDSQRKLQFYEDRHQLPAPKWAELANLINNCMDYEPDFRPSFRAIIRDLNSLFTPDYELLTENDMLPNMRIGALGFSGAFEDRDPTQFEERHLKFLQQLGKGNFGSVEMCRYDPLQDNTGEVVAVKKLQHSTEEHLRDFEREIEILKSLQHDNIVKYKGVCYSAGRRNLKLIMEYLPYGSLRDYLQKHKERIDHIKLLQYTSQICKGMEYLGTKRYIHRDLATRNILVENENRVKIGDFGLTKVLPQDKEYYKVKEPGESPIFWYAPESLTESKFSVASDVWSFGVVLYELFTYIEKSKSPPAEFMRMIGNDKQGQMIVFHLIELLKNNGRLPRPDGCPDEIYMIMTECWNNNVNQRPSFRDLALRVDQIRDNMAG
Sequence of AURKB (Aurora B) (Q96GD4 whole entry): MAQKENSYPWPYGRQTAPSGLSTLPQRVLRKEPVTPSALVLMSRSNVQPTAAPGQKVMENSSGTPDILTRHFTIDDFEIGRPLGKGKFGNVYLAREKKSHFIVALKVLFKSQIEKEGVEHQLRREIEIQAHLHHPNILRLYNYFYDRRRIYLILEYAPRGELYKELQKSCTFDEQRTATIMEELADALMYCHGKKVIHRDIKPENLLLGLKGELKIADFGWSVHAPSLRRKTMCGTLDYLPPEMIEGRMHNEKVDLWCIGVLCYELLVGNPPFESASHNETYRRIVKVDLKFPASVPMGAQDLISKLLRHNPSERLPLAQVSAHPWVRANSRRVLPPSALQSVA

Structure (SMILES) | IC50 (DNAPK) [nM] | JAK2 enz pIC50 (JAK2) | JAK3 enz pIC50 (JAK3) | AurA enz pIC50 (AURKA (Aurora A)) | AurB enz pIC50 (AURKB (Aurora B)) | IC50 (JAK2) [µM] | IC50 (JAK3) [µM] | IC50 (AURKA (Aurora A)) [µM] | IC50 (AURKB (Aurora B)) [µM]
CC(=O)N1CCC(n2c(=O)n(C)c3cnc(Nc4cc5cccnc5cc4C)nc32)CC1 [Example 51, 9-(1-acetylpiperidin-4-yl)-7-methyl-2-((7-methylquinolin-6-yl)amino)-7,9-dihydro-8H-purin-8-one] | 12.6 | <5 | <5 | <5 | <5 |  |  |  | 
CC(=O)N1CCC(n2c(=O)n(C)c3cnc(Nc4cc5cncnc5cc4C)nc32)CC1 [Example 3, 9-(1-acetylpiperidin-4-yl)-7-methyl-2-((7-methylquinazolin-6-yl)amino)-7,9-dihydro-8H-purin-8-one] | 63.1 | <5 | <5 | <5 | <5 |  |  |  | 
Cc1cc2nccnc2cc1Nc1ncc2c(n1)n([C@@H]1CCCOC1)c(=O)n2C [Example 26, (R)-7-methyl-2-((7-methylquinoxalin-6-yl)amino)-9-(tetrahydro-2H-pyran-3-yl)-7,9-dihydro-8H-purin-8-one] | 39.8 | <5 | <5 | <5 | <5 |  |  |  | 
Cc1cc2ncccc2cc1Nc1ncc2c(n1)n(C1CCS(=O)(=O)CC1)c(=O)n2C [Example 35, 9-(1,1-dioxidotetrahydro-2H-thiopyran-4-yl)-7-methyl-2-((7-methylquinolin-6-yl)amino)-7,9-dihydro-8H-purin-8-one] | 39.8 | <5 | 5.2 | <5 | <5 |  |  |  | 
Cc1cnc2cc(C)c(Nc3ncc4c(n3)n(C3CCOCC3)c(=O)n4C)cc2n1 [Example 34, 2-((3,7-dimethylquinoxalin-6-yl)amino)-7-methyl-9-(tetrahydro-2H-pyran-4-yl)-7,9-dihydro-8H-purin-8-one] | 31.6 |  |  |  |  | > 10 | > 10 | > 10 | > 10
Cc1cc2nnccc2cc1Nc1ncc2c(n1)n([C@H]1CCOC1)c(=O)n2C [Example 21, (S)-7-methyl-2-((7-methylcinnolin-6-yl)amino)-9-(tetrahydrofuran-3-yl)-7,9-dihydro-8H-purin-8-one] | 15.8 | <5 | <5 | <5 | <5 |  |  |  | 
Cc1cc2nccnc2cc1Nc1ncc2c(n1)n([C@@H]1CCOC1)c(=O)n2C [Example 24, (R)-7-methyl-2-((7-methylquinoxalin-6-yl)amino)-9-(tetrahydrofuran-3-yl)-7,9-dihydro-8H-purin-8-one] | 79.4 | <5 | <5 | <5 | <5 |  |  |  | 
Cc1cc2ncccc2cc1Nc1ncc2c(n1)n([C@@H]1CCN(C)C[C@@H]1F)c(=O)n2C [Example 46, 9-((3S,4R)-3-fluoro-1-methylpiperidin-4-yl)-7-methyl-2-((7-methylquinolin-6-yl)amino)-7,9-dihydro-8H-purin-8-one] | 631 | <5 | <5 | <5 | <5 |  |  |  | 
CCN1CCC(n2c(=O)n(C)c3cnc(Nc4cc5cccnc5cc4C)nc32)CC1 [Example 50, 9-(1-ethylpiperidin-4-yl)-7-methyl-2-((7-methylquinolin-6-yl)amino)-7,9-dihydro-8H-purin-8-one] | 398 | <5 | <5 | <5 | <5 |  |  |  | 
Cc1cc2nccnc2cc1Nc1ncc2c(n1)n([C@]1(C)CC[C@H](O)CC1)c(=O)n2C [Example 20, 9-((1s,4s)-4-hydroxy-1-methylcyclohexyl)-7-methyl-2-((7-methylquinoxalin-6-yl)amino)-7,9-dihydro-8H-purin-8-one] | 20 | <5 | <5 | <5 | <5 |  |  |  | 
Cc1cc2ncccc2cc1Nc1ncc2c(n1)n([C@@H]1CCNC[C@@H]1F)c(=O)n2C [Example 38, 9-((3S,4R)-3-fluoropiperidin-4-yl)-7-methyl-2-((7-methylquinolin-6-yl)amino)-7,9-dihydro-8H-purin-8-one] | 3160 | <5 | <5 | <5 | <5 |  |  |  | 
Cc1cc2ncccc2cc1Nc1ncc2c(n1)n([C@H]1CC[C@](C)(N)CC1)c(=O)n2C [Example 40, 9-((1r,4r)-4-amino-4-methylcyclohexyl)-7-methyl-2-((7-methylquinolin-6-yl)amino)-7,9-dihydro-8H-purin-8-one] | 158 |  |  |  |  | > 10 | > 7.94 | > 10 | > 10
Cc1cc2nccnc2cc1Nc1ncc2c(n1)n([C@H]1CC[C@](C)(O)CC1)c(=O)n2C [Example 18, 9-((1r,4r)-4-hydroxy-4-methylcyclohexyl)-7-methyl-2-((7-methylquinoxalin-6-yl)amino)-7,9-dihydro-8H-purin-8-one] | 50.1 |  |  |  |  | > 10 | > 10 | > 10 | > 10
Cc1cc2ncccc2cc1Nc1ncc2c(n1)n(C1CCN(CCO)CC1)c(=O)n2C [Example 48, 9-(1-(2-hydroxyethyl)piperidin-4-yl)-7-methyl-2-((7-methylquinolin-6-yl)amino)-7,9-dihydro-8H-purin-8-one] | 316 | <5 | <5 | <5 | <5 |  |  |  | 
Cc1cc2nccnc2cc1Nc1ncc2c(n1)n([C@H]1CC[C@@H](O)CC1)c(=O)n2C [Example 13, 9-((1s,4s)-4-hydroxycyclohexyl)-7-methyl-2-((7-methylquinoxalin-6-yl)amino)-7,9-dihydro-8H-purin-8-one] | 15.8 |  |  |  |  | > 10 | > 10 | > 10 | > 10
